Toxic doses and inconclusive results are not listed. No stated cut-off is given here; in the data, active means T/C of 150% or more; inactive means T/C below 125%.
Tested on: L1210 leukemia ip in BDF1 mice, survival T/C
Experiment: NCI In Vivo Anticancer Drug Screen. Data for tumor model L1210 Leukemia (intraperitoneal) in B6D2F1 (BDF1) mice
Settings: endpoint: mean survival time, higher = longer survival
In short: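 Tumor cells were implanted, animals were treated, and survival was followed. The result divides the treated measurement by the vehicle-control measurement.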

[1] = dose: 100.0 mg/kg/injection, schedule: Q01DX009 (ip), vehicle: saline with Tween-80
[2] = dose: 100.0 mg/kg/injection, schedule: Q01DX009 (ip), vehicle: Klucel (hydroxypropylcellulose) (HPC)
[3] = dose: 200.0 mg/kg/injection, schedule: Q01DX009 (ip), vehicle: Klucel (hydroxypropylcellulose) (HPC)
[4] = dose: 100.0 mg/kg/injection, schedule: Q04DX003 (ip), vehicle: Klucel (hydroxypropylcellulose) (HPC)
[5] = dose: 200.0 mg/kg/injection, schedule: Q04DX003 (ip), vehicle: Klucel (hydroxypropylcellulose) (HPC)
[6] = dose: 400.0 mg/kg/injection, schedule: Q04DX003 (ip), vehicle: Klucel (hydroxypropylcellulose) (HPC)
[7] = dose: 50.0 mg/kg/injection, schedule: Q04DX003 (ip), vehicle: saline
[8] = dose: 400.0 mg/kg/injection, schedule: Q01DX009 (ip), vehicle: Klucel (hydroxypropylcellulose) (HPC)
[9] = dose: 100.0 mg/kg/injection, schedule: Q01DX001 (ip), vehicle: saline
[10] = dose: 200.0 mg/kg/injection, schedule: Q01DX001 (ip), vehicle: saline
[11] = dose: 100.0 mg/kg/injection, schedule: Q04DX003 (ip), vehicle: saline
[12] = dose: 50.0 mg/kg/injection, schedule: Q01DX009 (ip), vehicle: Klucel (hydroxypropylcellulose) (HPC)
[13] = dose: 100.0 mg/kg/injection, schedule: Q01DX009 (ip), vehicle: saline
[14] = dose: 200.0 mg/kg/injection, schedule: Q01DX009 (ip), vehicle: saline
[15] = dose: 400.0 mg/kg/injection, schedule: Q01DX009 (ip), vehicle: saline
[16] = dose: 100.0 mg/kg/injection, schedule: Q01DX001 (ip), vehicle: carboxymethylcellulose (CMC)
[17] = dose: 200.0 mg/kg/injection, schedule: Q01DX001 (ip), vehicle: carboxymethylcellulose (CMC)
[18] = dose: 400.0 mg/kg/injection, schedule: Q01DX001 (ip), vehicle: carboxymethylcellulose (CMC)
[19] = dose: 400.0 mg/kg/injection, schedule: Q04DX003 (ip), vehicle: saline

Measured: T/C

C=C(CCC(C(=O)O)C1CCC2(C)C3=C(CCC12C)C1(C)CCC(O)C(C)(C)C1CC3)C(C)C (stereo unspecified)
inactive: [1] 91 % of control | dose: 200.0 mg/kg/injection, schedule: Q01DX009 (ip), vehicle: saline with Tween-80 87 % of control | dose: 400.0 mg/kg/injection, schedule: Q01DX009 (ip), vehicle: saline with Tween-80 94 % of control

COc1ccc(OC)c(NC(=O)Nc2cc(Cl)ccc2C)c1
inactive: [2] 89 % of control | [3] 93 % of control

Cc1cc(C)c(C(=O)C2CC=CCC2c2c(C)cc(C)cc2C)c(C)c1 (stereo unspecified)
inactive: [4] 101 % of control | [5] 94 % of control | [6] 95 % of control

CC1CS(=O)(=O)O1 (stereo unspecified)
inactive: dose: 100.0 mg/kg/injection, schedule: Q04DX002 (ip), vehicle: saline with Tween-80 114 % of control | dose: 200.0 mg/kg/injection, schedule: Q04DX002 (ip), vehicle: saline with Tween-80 105 % of control

[O-][n+]1c(CCl)nc2cccc3c2c1-c1ccccc1-3
inactive: dose: 25.0 mg/kg/injection, schedule: Q01DX009 (ip), vehicle: saline with Tween-80 108 % of control | dose: 50.0 mg/kg/injection, schedule: Q01DX009 (ip), vehicle: saline with Tween-80 110 % of control | dose: 50.0 mg/kg/injection, schedule: Q04DX003 (ip), vehicle: saline with Tween-80 102 % of control | [1] 104 % of control | dose: 100.0 mg/kg/injection, schedule: Q04DX003 (ip), vehicle: saline with Tween-80 107 % of control

Cc1cccc(N=Nc2c(C)nc(N)nc2C)c1C
inactive: dose: 100.0 mg/kg/injection, schedule: Q04DX003 (ip), vehicle: other 94 % of control | dose: 200.0 mg/kg/injection, schedule: Q04DX003 (ip), vehicle: other 96 % of control | dose: 400.0 mg/kg/injection, schedule: Q04DX003 (ip), vehicle: other 93 % of control

NC1=NCc2ccccc21
inactive: dose: 12.5 mg/kg/injection, schedule: Q04DX003 (ip), vehicle: saline 102 % of control | dose: 25.0 mg/kg/injection, schedule: Q04DX003 (ip), vehicle: saline 93 % of control | [7] 91 % of control

O=C(O)c1ccc(C(=O)/C=N/O)nc1
inactive: [2] 90 % of control | [3] 93 % of control | [8] 97 % of control

O=c1cc(-c2ccccc2Br)[nH]c2ccccc12
inactive: [9] 96 % of control | [10] 100 % of control | dose: 400.0 mg/kg/injection, schedule: Q01DX001 (ip), vehicle: saline 96 % of control

OC(CNc1ccc(Cl)cc1)CN1CCCCC1 (stereo unspecified)
inactive: [7] 91 % of control | [9] 100 % of control | [11] 98 % of control | [10] 90 % of control

O=C(O)c1ccc(CO)o1
inactive: [12] 107 % of control | [2] 93 % of control

O=CN/N=C/c1cc(Cl)cc(Cl)c1O
inactive: [4] 100 % of control | [5] 92 % of control | [6] 94 % of control

OCCOC(O)C(Cl)(Cl)Cl (stereo unspecified)
inactive: dose: 100.0 mg/kg/injection, schedule: Q04DX002 (ip), vehicle: saline 100 % of control | dose: 200.0 mg/kg/injection, schedule: Q04DX002 (ip), vehicle: saline 92 % of control | dose: 400.0 mg/kg/injection, schedule: Q04DX002 (ip), vehicle: saline 95 % of control

Cc1ccc(CC(O)(CC(O)(c2ccccc2)c2ccccc2)c2ccccc2)cc1C (stereo unspecified)
inactive: dose: 75.0 mg/kg/injection, schedule: Q01DX001 (ip), vehicle: saline 92 % of control | dose: 75.0 mg/kg/injection, schedule: Q04DX003 (ip), vehicle: saline 94 % of control | dose: 150.0 mg/kg/injection, schedule: Q01DX001 (ip), vehicle: saline 92 % of control | dose: 150.0 mg/kg/injection, schedule: Q04DX003 (ip), vehicle: saline 91 % of control | dose: 300.0 mg/kg/injection, schedule: Q01DX001 (ip), vehicle: saline 90 % of control | dose: 300.0 mg/kg/injection, schedule: Q04DX003 (ip), vehicle: saline 94 % of control

c1ccc(C2(N3CCC4(CC3)OCCO4)CCCCC2)cc1
inactive: dose: 100.0 mg/kg/injection, schedule: Q04DX002 (ip), vehicle: Klucel (hydroxypropylcellulose) (HPC) 102 % of control | dose: 200.0 mg/kg/injection, schedule: Q04DX002 (ip), vehicle: Klucel (hydroxypropylcellulose) (HPC) 105 % of control

O=C1OCC(O)C(O)C(O)C(O)C1O (stereo unspecified)
inactive: [13] 102 % of control | [14] 100 % of control | [15] 102 % of control

S=c1nc[nH]c2[nH]ncc12
inactive: [16] 108 % of control | [17] 93 % of control | [18] 93 % of control

CN(C)C(=O)NN1CCCCCC1
inactive: [11] 96 % of control | dose: 200.0 mg/kg/injection, schedule: Q04DX003 (ip), vehicle: saline 96 % of control | [19] 100 % of control

CN(C)CC(=O)O
inactive: [13] 94 % of control | [14] 94 % of control | [15] 94 % of control

CC(C)(C)C(=O)CC(c1ccccc1)c1ccccc1
inactive: dose: 50.0 mg/kg/injection, schedule: Q01DX001 (ip), vehicle: other 102 % of control | dose: 100.0 mg/kg/injection, schedule: Q01DX001 (ip), vehicle: other 98 % of control | dose: 200.0 mg/kg/injection, schedule: Q01DX001 (ip), vehicle: other 98 % of control | dose: 400.0 mg/kg/injection, schedule: Q01DX001 (ip), vehicle: other 98 % of control

O=Cc1cn[nH]c1-c1ccccc1
inactive: [2] 97 % of control | [4] 95 % of control | [3] 97 % of control | [5] 98 % of control | [8] 106 % of control | [6] 98 % of control

NCc1cc(=O)[nH]c(=O)[nH]1
inactive: [11] 104 % of control | [19] 89 % of control

O=C(O)c1cccc2c1C(=O)c1cc([N+](=O)[O-])ccc1-2
inactive: dose: 75.0 mg/kg/injection, schedule: Q01DX001 (ip), vehicle: carboxymethylcellulose (CMC) 101 % of control | dose: 150.0 mg/kg/injection, schedule: Q01DX001 (ip), vehicle: carboxymethylcellulose (CMC) 105 % of control

COc1ccccc1NC(N)=S
inactive: dose: 25.0 mg/kg/injection, schedule: Q01DX009 (ip), vehicle: Klucel (hydroxypropylcellulose) (HPC) 94 % of control | dose: 25.0 mg/kg/injection, schedule: Q04DX003 (ip), vehicle: Klucel (hydroxypropylcellulose) (HPC) 98 % of control | [12] 97 % of control | dose: 50.0 mg/kg/injection, schedule: Q04DX003 (ip), vehicle: Klucel (hydroxypropylcellulose) (HPC) 92 % of control | [2] 101 % of control | [4] 103 % of control

CC1(C(N)=O)CCC(C(=O)O)C1(C)C (stereo unspecified)
inactive: dose: 50.0 mg/kg/injection, schedule: Q01DX001 (ip), vehicle: carboxymethylcellulose (CMC) 103 % of control | [16] 109 % of control | [17] 103 % of control | [18] 103 % of control

Cc1cccc(C(=O)NC(=S)Nc2ccccc2)c1
inactive: dose: 5.0 mg/kg/injection, schedule: Q01DX001 (ip), vehicle: saline 97 % of control | dose: 10.0 mg/kg/injection, schedule: Q01DX001 (ip), vehicle: saline 103 % of control | dose: 20.0 mg/kg/injection, schedule: Q01DX001 (ip), vehicle: saline 97 % of control

From PubChem BioAssay AID248 (DTP/NCI, 2004)
